For data set [1] the following is noted: cited from earlier work.
The test system of a further data set is J-Lat 10.6 cells. As to the kind of experiment: In vitro latent HIV activation, J-Lat 10.6 cell line assay (GFP expression). The class given is cell-based. The conditions noted are these: 50 nM, without vaults, positive control, 48 hrs, N=3, ±1 SD. Here is the method:
(§1) FIGS. 10A, 10B, and 10C: FIG. 10A) In vitro latent HIV activation using bryostatin 1 sequestered in AH1 vault complexes compared to empty vault complexes on J-Lat 10.6 cells for 48 hrs. In these assays 50 nM of byrostatin 1 (without vaults) was used as a positive control and induced GFP expression in 30.6% (±0.6%) of cells. Error bars indicate ±1 SD (N=3). NS not significant, **p<0.0001 empty vault vs. Vault+Byrostatin 1 (2-sided t-test). FIG. 10B) In vitro stimulation of CD69 HIV provirus latency activation biomarker using bryostatin 1 sequestered in AH1 vault complexes compared to empty vault complexes on primary human PBMCs for 24 hrs. Positive control stimulations with 50 nM of byrostatin 1 compound (without vaults) induced CD69 expression in 69.4% (±31.3%) of cells. Error bars indicate ±1 SD (N=4 different cell donors). […]
(§2) Bryostatin 1 is an effective HIV therapeutic as it activates latent HIV provirus that remains within cellular reservoirs. […] The bryostatin 1 sequestered within AH1 vault complex (bryostatin/AH1) was assessed in vitro and in vivo for the ability to activate latent HIV provirus. […] When tested for activity in this way, bryostatin/AH1 activated CD69 expression in primary human PBMC obtained from 4 different donors in a dose dependent manner with stimulation occurring at concentrations as low as 0.1 ng/μL AH1 vault complex as analyzed by flow cytometry (FIG. 10B).

Another data set relates to primary human PBMCs. Briefly: In vitro stimulation of CD69 HIV provirus latency activation biomarker, flow cytometry. The class given is cell-based. The conditions noted are these: 50 nM, without vaults, positive control, 24 hrs, N=4 donors, ±1 SD. Here is the method:
as §1, §2

The structures appear in SMILES notation. Values after ≈ are worked out from the molar mass of the structure shown.

For the compound `CC1=C(/C=C/C(C)=C/C=C/C(C)=C/C(=O)O)C(C)(C)CCC1` [ATRA, All-trans Retinoic Acid], the “aqueous solubility (in words)” value in data set [1] is “aqueous insoluble”.

With `CCC/C=C/C=C/C(=O)O[C@H]1/C(=C/C(=O)OC)C[C@H]2C[C@H]([C@@H](C)O)OC(=O)C[C@H](O)C[C@@H]3C[C@H](OC(C)=O)C(C)(C)[C@](O)(C[C@@H]4C/C(=C/C(=O)OC)C[C@H](/C=C/C(C)(C)[C@]1(O)O2)O4)O3` [Bryostatin 1], the “cells with induced GFP expression” value with J-Lat 10.6 cells was determined as 30.6%. Further, the “cells with induced CD69 expression” value with primary human PBMCs amounted to 69.4%.

As to `NC(=O)c1[nH]c2ccc(Cl)cc2c1S(=O)(=O)c1ccccc1` [CSIS, 5-chloro-3-phenylsulfonylindole-2-carboxamide], the solubility in water in data set [1] was 1.4 µg/mL (≈ 4.18 µM).

For the compound `COc1cccc2c1C(=O)c1c(O)c3c(c(O)c1C2=O)C[C@@](O)(C(=O)CO)C[C@@H]3O[C@H]1C[C@H](N)[C@H](O)[C@H](C)O1` [Doxorubicin], the solubility in water entry in data set [1] is “over 50 mg/mL”.

The record behind these values is US10676534B2, “Vaults engineered for hydrophobic drug delivery” (priority 2013, dated 2020).
